# From patent publication US20200368315A1, “ANTIMICROBIAL PEPTIDES AND ADMIXTURES THEREOF SHOWING ANTIMICROBIAL ACTIVITY AGAINST GRAM-NEGATIVE PATHOGENS” (priority 2017, published 2020)
# Where two headings read alike, the source gives them in different places. Non-standard residues stand in square brackets, D forms with d. Residues, ends and D or L forms follow the SMILES beside them. No end group written: not given here.
# How the values were obtained:
# indicator strains = conditions: indicator strain not given; cited from earlier work
# [1] = gene nisA (nisin A mutants); cited from earlier work
# E. coli LMG15862 [2] = test: microbe, parasite or virus in culture; assay type: cell-based, Escherichia coli; conditions: for MICb (GNP concentration when used alone): L-form GNP, Table 6
# Protocol: (§1) Escherichia coli, Klebsiella pneumoniae, Pseudomonas aeruginosa, Acinetobacter baumannii, Enterobacter aerogenes were grown in Luria-Bertani (LB) broth shaken (200 rpm) or on LB agar at 37° C. […] MICs tests were performed in duplicate by a liquid growth inhibition microdilution assays in sterilized polypropylene microtiter plates according to Wiegand and […] [27]. […] The suspension was diluted in a ratio of 1:100 using Mueller Hinton Broth (MHB) and the final inoculum is 5*10^5 CFU/mL. […] The antimicrobials were diluted serially by 1/2 one by one and 50 uL diluted bacterial suspension were added to each well to make the final volume to be 100 uL. Growth control was accomplished by remove 10 uL from well 11 and dilute 1000 times to plate 1/10 suspension on the solid medium. […] The number of colonies on the control agar plate should be around 50 to ensure the concentration of the inoculum and the effectiveness of the experiment. The lowest concentration of the antimicrobials that inhibits visible growth of the indicator is identified as MIC.
# K. pneumoniae LMG20218 [3] = test: microbe, parasite or virus in culture; assay type: cell-based, Klebsiella pneumoniae
# Protocol: as §1
# P. aeruginosa LMG 6395 [4] = test: microbe, parasite or virus in culture; assay type: cell-based, Pseudomonas aeruginosa
# Protocol: as §1
# A. baumannii LMG01041 [5] = test: microbe, parasite or virus in culture; assay type: cell-based, Acinetobacter baumannii
# Protocol: as §1
# E. aerogenes LMG 02094 [6] = test: microbe, parasite or virus in culture; assay type: cell-based, Enterobacter aerogenes
# Protocol: as §1
# E. coli LMG15862 [7] = assay type: cell-based, Escherichia coli
# Description: (§2) The test of synergistic effect was processed by conducting standard chequerboard broth microdilution assays. Nisin (Drug X) was loaded two fold serially diluted from row 1 to 10 in X-axis while GNPs (Drug Y) were loaded in eight two fold serially diluted concentrations from line A to H in Y-axis (FIG. 1). The original concentrations of peptides were MICs of each. Row 11 are used as growth control with no peptide was included, while row 12 with MHB medium-only wells was included as a sterility control as referred before. 50 uL fresh bacterial suspension was added to well 1-11 and final volume of each well on the plate is 100 uL.
# (§3) To determine whether the combination therapy is additive, synergistic or antagonistic, fractional inhibitory concentration (FIC) indices were calculated. FICI=FICa+FICb=MICac/MICa+MICbc/MICb. The MICa/MICb is the MIC of compound A/B alone. MICac is the MIC of compound A in combination with compound B and MICbc is the MIC of compound B when it was combination with compound A. […]. FICa is FIC of compound A while FICb is FIC of compound B. The FICI is interpreted as follows: synergistic, FICI≤0.5; additive, 0.5<FICI<1; indifferent, 1<FICI<2; antagonistic, FICI>2.
# K. pneumoniae LMG20218 [8] = assay type: cell-based, Klebsiella pneumoniae; conditions: MIC of GNP alone
# Description: as §2, §3
# P. aeruginosa LMG 6395 [9] = assay type: cell-based, Pseudomonas aeruginosa
# Description: as §2, §3
# A. baumannii LMG01041 [10] = assay type: cell-based, Acinetobacter baumannii; conditions: MIC of GNP alone
# Description: as §2, §3
# E. aerogenes LMG 02094 [11] = assay type: cell-based, Enterobacter aerogenes; conditions: MIC of GNP alone
# Description: as §2, §3
# A. baumannii LMG01041 [12] = conditions: MIC of GNP alone
# Protocol: (§4) The test of synergistic effect was processed by conducting standard chequerboard broth microdilution assays. […] Row 11 are used as growth control with no peptide was included, while row 12 with MHB medium-only wells was included as a sterility control as referred before. 50 uL fresh bacterial suspension was added to well 1-11 and final volume of each well on the plate is 100 uL.
# (§5) The test of synergistic effect was processed as method 1.4.
# as §3
# E. aerogenes LMG 02094 [13] = conditions: MIC of GNP alone
# Protocol: as §4, §5, §3
# E. coli LMG15862 [14] = system: E. coli LMG15862
# Protocol: as §4, §5, §3
# K. pneumoniae LMG20218 [15] = conditions: MIC of GNP alone
# Protocol: as §4, §5, §3
# P. aeruginosa LMG 6395 [16] = system: P. aeruginosa LMG 6395
# Protocol: as §4, §5, §3
# Gram-negative pathogens = assay type: cell-based; conditions: L-form GNPs alone; five Gram-negative pathogens
# Protocol: as §1
# [17] = MIC of GNP when used with the MICac concentration of nisin
# [18] = MIC of nisin in combination with the GNP at the MICbc concentration
# [19] = MIC of GNP in combination with vancomycin at the MICac concentration
# [20] = MIC of vancomycin in combination with the GNP at the MICbc concentration
compound,measurement,setting,value
Teicoplanin [2a],Biological activity (relative to the wild type),indicator strains,"Increased (Increased activity, >120% compared with the activity of vancomycin)"
"K22S (ITSISLCTPGCKTGALMGCNMSTATCHCSIHVSK; cysteine pairing not given here; also: lantibiotic nisin-A; UniProt P13068 24-57, looked up, variant K22S)",Biological activity (relative to the wild type),[1],"Increased (Increased activity, >120% compared to the activity of wild type nisin A/Z)"
KRIVQRIKKWLR-NH2 [GNP-9],MICb (GNP concentration when used alone),E. coli LMG15862 [2]; E. coli LMG15862,4 µM
same,MICb (MIC of GNP alone),K. pneumoniae LMG20218 [3]; LMG20218,64 µM
same,MICb (MIC of GNP alone),P. aeruginosa LMG 6395 [4]; LMG 6395,16 µM
same,MICb (MIC of GNP alone),A. baumannii LMG01041 [5]; LMG01041,16 µM
same,MICb (MIC of GNP alone),E. aerogenes LMG 02094 [6]; LMG 02094,>32 µM
CC[C@@H](C)[C@@H](NC(=O)CN)C(=O)NCC(=O)N[C@H](CCCCN)C(=O)N[C@H](Cc1c[nH]cn1)C(=O)N[C@@H](C(=O)NCC(=O)N[C@H](CCCCN)C(=O)N[C@H](C)C(=O)N[C@H](CC(C)C)C(=O)N[C@H](CCCCN)C(=O)NCC(=O)N[C@H](CC(C)C)C(=O)N[C@H](CCCCN)C(=O)NCC(=O)N[C@H](CC(C)C)C(=O)N[C@H](CC(C)C)C(=O)N[C@H](CCCCN)C(=O)NCC(=O)N[C@H](CC(C)C)C(=O)NCC(=O)N[C@H](CCC(=O)O)C(=O)N[C@H](CS)C(=O)O)C(C)C [GNP-D7] (H-G[dI]G[dK][dH][dV]G[dK][dA][dL][dK]G[dL][dK]G[dL][dL][dK]G[dL]G[dE][dC]-OH; N-terminus and C-terminus assumed),MICb (MIC of GNP alone),"E. coli LMG15862 [2]; D form GNP, E. coli LMG15862, Table 9",2 µM
same,MIC value,E. coli LMG15862 [2]; LMG15862,2 µM
same,MICb (MIC of GNP alone),"K. pneumoniae LMG20218 [3]; D form GNP, K. pneumoniae LMG20218, Table 9",4 µM
same,MIC value,K. pneumoniae LMG20218 [3]; LMG20218,4 µM
same,MICb (MIC of GNP alone),"P. aeruginosa LMG 6395 [4]; D form GNP, P. aeruginosa LMG 6395, Table 9",4 µM
same,MIC value,P. aeruginosa LMG 6395 [4]; LMG 6395,4 µM
same,MICb (MIC of GNP alone),"A. baumannii LMG01041 [5]; D form GNP, A. baumannii LMG01041, Table 9",2 µM
same,MIC value,A. baumannii LMG01041 [5]; LMG01041,2 µM
same,MICb (MIC of GNP alone),"E. aerogenes LMG 02094 [6]; D form GNP, E. aerogenes LMG 02094, Table 9",4 µM
same,MIC value,E. aerogenes LMG 02094 [6]; LMG 02094,4 µM
GNNRPVYIPQPRPPHPRL [GNP-1],MICb (GNP concentration when used alone),E. coli LMG15862 [2]; E. coli LMG15862,0.5 µM
same,MICb (MIC of GNP alone),K. pneumoniae LMG20218 [3]; LMG20218,5 µM
same,MICb (MIC of GNP alone),P. aeruginosa LMG 6395 [4]; LMG 6395,>64 µM
same,MICb (MIC of GNP alone),A. baumannii LMG01041 [5]; LMG01041,>64 µM
same,MICb (MIC of GNP alone),E. aerogenes LMG 02094 [6]; LMG 02094,8 µM
GIGKHVGKALKGLKGLLKGLGEC [GNP-7],MICb (GNP concentration when used alone),E. coli LMG15862 [2]; E. coli LMG15862,6 µM
same,MICb (MIC of GNP alone),K. pneumoniae LMG20218 [3]; LMG20218,12 µM
same,MICb (MIC of GNP alone),P. aeruginosa LMG 6395 [4]; LMG 6395,13 µM
same,MICb (MIC of GNP alone),A. baumannii LMG01041 [5]; LMG01041,2 µM
same,MICb (MIC of GNP alone),E. aerogenes LMG 02094 [6]; LMG 02094,8 µM
"K12V (ITSISLCTPGCVTGALMGCNMKTATCHCSIHVSK; cysteine pairing not given here; also: lantibiotic nisin-A; UniProt P13068 24-57, looked up, variant K12V)",Biological activity (relative to the wild type),[1],"Increased (Increased activity, >120% compared to the activity of wild type nisin A/Z)"
RIRKRIKKWLR-NH2 [GNP8-4],MICb,E. coli LMG15862 [7]; MIC of GNP alone,16 µM
same,MICbc,E. coli LMG15862 [7]; [17],2 µM
same,MICac,E. coli LMG15862 [7]; [18],3 µM
same,MICb,K. pneumoniae LMG20218 [8],>256 µM
same,MICb,P. aeruginosa LMG 6395 [9]; MIC of GNP alone,16 µM
same,MICbc,P. aeruginosa LMG 6395 [9]; [17],4 µM
same,MICac,P. aeruginosa LMG 6395 [9]; [18],2.25 µM
same,MICb,A. baumannii LMG01041 [10],>256 µM
same,MICb,E. aerogenes LMG 02094 [11],>256 µM
same,MICb,A. baumannii LMG01041 [12],>256 µM
same,MICb,E. aerogenes LMG 02094 [13],>256 µM
same,MICb,E. coli LMG15862 [14]; MIC of GNP alone,16 µM
same,MICbc,E. coli LMG15862 [14]; [19],2 µM
same,MICac,E. coli LMG15862 [14]; [20],4 µM
same,MICb,K. pneumoniae LMG20218 [15],>256 µM
same,MICb,P. aeruginosa LMG 6395 [16]; MIC of GNP alone,16 µM
same,MICbc,P. aeruginosa LMG 6395 [16]; [19],8 µM
same,MICac,P. aeruginosa LMG 6395 [16]; [20],4 µM
RIWVIWRR-NH2 [GNP-5],MICb (GNP concentration when used alone),E. coli LMG15862 [2]; E. coli LMG15862,3 µM
same,MICb (MIC of GNP alone),K. pneumoniae LMG20218 [3]; LMG20218,6 µM
same,MICb (MIC of GNP alone),P. aeruginosa LMG 6395 [4]; LMG 6395,3 µM
same,MICb (MIC of GNP alone),A. baumannii LMG01041 [5]; LMG01041,2 µM
same,MICb (MIC of GNP alone),E. aerogenes LMG 02094 [6]; LMG 02094,5 µM
same,Activity ranking amongst all the GNPs,Gram-negative pathogens,most potent
